Values joined by “and” are separate entries in the source; they are usually repeats but may differ in a detail not shown here. Equal values may be shown once.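 How tested: cells in 96-well plates exposed to compound for 48 hours at five concentrations. GI50 is the concentration that inhibits growth by half. The concentration for full growth arrest is given as TGI.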 Bounds are passed on as bounds.

Test systems include K-562 leukemia; IGROV1 ovarian; OVCAR-8 ovarian; OVCAR-5 ovarian; HOP-92 NSCLC; LOX IMVI melanoma; SR leukemia; A498 renal.
Assay in all cases: NCI-60 cell line screen, 48 h

As to `CCOC(=O)c1cc(/C=C/C(C)=C/C(=O)OC)oc1C`, the TGI with K-562 leukemia, with IGROV1 ovarian, with OVCAR-8 ovarian, in the assay with OVCAR-5 ovarian, in the assay on HOP-92 NSCLC and in the assay with LOX IMVI melanoma was more than 100 µM each time. Besides, the TGI in the assay with SR leukemia is more than 100 µM.
As for `COC(=O)c1ccccc1NC(=O)C(=O)NNC(=O)c1ccncc1`, the TGI in the assay with IGROV1 ovarian, with OVCAR-8 ovarian, in the assay with HOP-92 NSCLC, with LOX IMVI melanoma and in the assay with SR leukemia was more than 100 µM each time.
In the case of `CCOC(=O)/C=C1\CCCC12OCCO2`, the TGI in the assay with K-562 leukemia, in the assay on IGROV1 ovarian, in the assay on OVCAR-8 ovarian, in the assay with A498 renal and with SR leukemia was more than 100 µM in each case.
As for `CC[O-].CC[O-].O=S(=O)([O-])c1ccc([O-])c2ncccc12.O=S(=O)([O-])c1ccc([O-])c2ncccc12.[Ti+4]`, the GI50 with K-562 leukemia is more than 100 µM; in the assay on IGROV1 ovarian, more than 100 µM; in the assay on OVCAR-8 ovarian it was 74.5 µM; with OVCAR-5 ovarian, 33.5 µM; in the assay with LOX IMVI melanoma it was 28.3 µM; with A498 renal, more than 100 µM. In addition, the TGI with K-562 leukemia, in the assay on IGROV1 ovarian, in the assay on OVCAR-8 ovarian, with OVCAR-5 ovarian, in the assay with LOX IMVI melanoma and in the assay on A498 renal was more than 100 µM in each case.
Take `Cc1ccccc1C1=C(C(=O)Nc2ccc(Cl)c(Cl)c2)NC(=S)NC1N` (stereo not given): the TGI with K-562 leukemia, in the assay on IGROV1 ovarian, in the assay with OVCAR-8 ovarian, in the assay with OVCAR-5 ovarian, with LOX IMVI melanoma and with A498 renal was more than 100 µM each time.
Regarding `CC(=O)OCC(OC(C)=O)C(OC(C)=O)C(OC(C)=O)C(=O)CNn1c(-c2ccccc2Cl)nc2ccccc2c1=O` (stereo not given), the TGI in the assay on K-562 leukemia, in the assay with OVCAR-8 ovarian, with OVCAR-5 ovarian, in the assay on LOX IMVI melanoma, with A498 renal and in the assay on SR leukemia was more than 100 µM each time.
With `COc1ccc(/C=C2\CCCC(C(NO)c3ccc(OC)cc3)C2=NO)cc1` (stereo not given), the TGI in the assay on K-562 leukemia, in the assay on IGROV1 ovarian, in the assay on OVCAR-8 ovarian and in the assay on A498 renal was more than 100 µM in each case.
In the case of `Cc1cccc(C)c1NC(=O)C1C(=O)N(c2c(C)cccc2C)C(=O)/C1=N\NC(N)=S` (stereo not given), the TGI in the assay on K-562 leukemia, with IGROV1 ovarian, in the assay on OVCAR-8 ovarian, with OVCAR-5 ovarian, with HOP-92 NSCLC and in the assay on A498 renal was more than 100 µM each time.
Take `CC1=C(C(=O)Nc2cccc(Cl)c2)C(c2ccccc2F)C(C(=O)Nc2cccc(Cl)c2)=C(C)N1`: the TGI in the assay on K-562 leukemia was determined as 24.6 µM; in the assay on IGROV1 ovarian it was 47.3 µM; in the assay with OVCAR-8 ovarian it was 46.9 µM; with OVCAR-5 ovarian, 37.2 µM; in the assay on HOP-92 NSCLC, 8.7 µM; in the assay on LOX IMVI melanoma, 21.1 µM. Further, the TGI with A498 renal came to 38.6 µM.
Consider `C/C=C/C=C/C=C/C=C/C(=O)O`, for which the TGI in the assay with K-562 leukemia, with IGROV1 ovarian, with OVCAR-8 ovarian, in the assay on OVCAR-5 ovarian, in the assay with LOX IMVI melanoma and in the assay on A498 renal was more than 100 µM each time. The TGI with SR leukemia was more than 100 µM.
Regarding `Cc1ccc(-c2cc(-c3ccccc3)c(C#N)c(=O)n2C2OC(CO)C(O)C(O)C2O)cc1` (stereo not given), the TGI with K-562 leukemia, in the assay on IGROV1 ovarian, with OVCAR-8 ovarian, in the assay with OVCAR-5 ovarian, with HOP-92 NSCLC and in the assay on LOX IMVI melanoma was more than 100 µM each time. Moreover, in the assay with A498 renal, the TGI was more than 100 µM.
`O=[N+]([O-])c1cnn(C2=CNc3ccccc3N=C2)c1`: the TGI in the assay on OVCAR-8 ovarian, in the assay on OVCAR-5 ovarian, in the assay on HOP-92 NSCLC and in the assay on SR leukemia was more than 100 µM in each case.
As to `N.N.N.N.O=C([O-])C(Cl)Cl.O=C([O-])C(Cl)Cl.[Co+3].[O-][Cl+3]([O-])([O-])[O-]`, the GI50 in the assay on K-562 leukemia, with IGROV1 ovarian, with OVCAR-8 ovarian, in the assay on OVCAR-5 ovarian, in the assay on HOP-92 NSCLC and in the assay on LOX IMVI melanoma was more than 100 µM each time. Moreover, the GI50 in the assay on A498 renal was more than 100 µM. Further, the TGI with K-562 leukemia, in the assay with IGROV1 ovarian, in the assay on OVCAR-8 ovarian, in the assay with OVCAR-5 ovarian, with HOP-92 NSCLC and in the assay with LOX IMVI melanoma was more than 100 µM in each case. This molecule also yielded a TGI in the assay on A498 renal of more than 100 µM.
For `N#CCCN(CCC#N)c1ccc(C(Sc2ccccc2)C(NC(=O)c2cc([N+](=O)[O-])ccc2Cl)C(=O)Sc2ccccc2)cc1` (stereo not given), the GI50 is 1.71 µM in the assay with K-562 leukemia, 1.49 µM in the assay on IGROV1 ovarian and 1.63 µM with OVCAR-8 ovarian. Besides, the TGI is 7.42 µM and 6.69 µM in the assay on K-562 leukemia; 8.99 µM and 4.2 µM with IGROV1 ovarian; 4.95 µM and 3.69 µM with OVCAR-8 ovarian; 11.7 µM with OVCAR-5 ovarian; 18.7 µM in the assay with HOP-92 NSCLC; 5.71 µM in the assay with LOX IMVI melanoma. In the assay with SR leukemia, this molecule yielded a TGI of 3.9 µM.
